26 compounds from US20070049593A1 (priority 2004, published 2007) can be followed below.

Counter-ions that a name gives are not always drawn. A value given as a limit tells only on which side of the number the result lay.

In general, IC50 refers to the concentration at which inhibition is half-maximal.

For this experiment, the target named is T1, HCV polymerase (Hepatitis C virus genotype 1b, UniProt P26663).
T1 construct: a region encoding NS5B (J Virol 1991 March, 65(3), 1105-13, 544 amino acids after deletion of 47 amino acids on the C-terminal); 6xHis (C); made in house; host or cells: Escherichia coli
T1 sequence (P26663 2420-2963): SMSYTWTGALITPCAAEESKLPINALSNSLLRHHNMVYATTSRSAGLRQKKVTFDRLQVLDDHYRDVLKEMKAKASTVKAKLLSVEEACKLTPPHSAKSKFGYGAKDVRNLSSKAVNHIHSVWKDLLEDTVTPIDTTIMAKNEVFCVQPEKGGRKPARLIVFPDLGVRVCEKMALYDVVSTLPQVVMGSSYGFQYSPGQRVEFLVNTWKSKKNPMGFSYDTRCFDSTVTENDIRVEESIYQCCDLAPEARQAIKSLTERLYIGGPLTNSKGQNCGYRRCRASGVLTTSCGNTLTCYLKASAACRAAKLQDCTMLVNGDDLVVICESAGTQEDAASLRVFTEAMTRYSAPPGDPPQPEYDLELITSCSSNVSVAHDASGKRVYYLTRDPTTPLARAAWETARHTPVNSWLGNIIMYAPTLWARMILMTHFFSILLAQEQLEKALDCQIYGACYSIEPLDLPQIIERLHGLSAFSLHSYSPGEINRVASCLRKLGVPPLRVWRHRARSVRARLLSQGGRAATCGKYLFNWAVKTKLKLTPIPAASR
The experiment is described as follows: biochemical. Details: species or system HCV BK strain. In outline:
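His-tagged NS5B (BK strain, 47-aa C-terminal deletion, E. coli-expressed) at 0.5 μg/ml copied 5 μg/ml run-off RNA bearing the HCV 3′ UTR with 2 μM UTP plus [3H]UTP, 50 μM ATP/GTP, in pH 7.5 Tris with 5 mM MgCl2, 25 °C, 90 min. TCA-precipitated RNA was counted and IC50 calculated.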

`COC(=O)[C@H](CCCCNC(=O)OC(C)(C)C)NC(=O)c1ccc2c(C3CCCCC3)c3n(c2c1)CCOc1cc(OC)ccc1-3` [Example 2-309, methyl (S)-6-tert-butoxycarbonylamino-2-[(12-cyclohexyl-3-methoxy-6,7-dihydro-5-oxa-7a-azadibenzo[a,e]azulene-9-carbonyl)amino]hexanoate]: the IC50 was 100 to 1000 nM. With `COC(=O)[C@H](Cc1ccc(OCC(=O)N(C)C)cc1)NC(=O)c1ccc2c(C3CCCCC3)c3n(c2c1)CCOc1cc(OC)ccc1-3` [Example 2-383, methyl (S)-2-[(12-cyclohexyl-3-methoxy-6,7-dihydro-5-oxa-7a-azadibenzo[a,e]azulene-9-carbonyl)amino]-3-[4-(dimethylcarbamoylmethoxy)phenyl]propionate] the figure was less than 100 nM; with `CN1CCCN(CCN2CCn3c(c(C4CCCCC4)c4ccc(C(=O)O)cc43)-c3ccccc32)CC1` [Example 1-53, 13-cyclohexyl-5-[2-(4-methyl-1,4-diazepan-1-yl)ethyl]-6,7-dihydro-5H-benzo[5,6][1,4]diazepino[7,1-a]indole-10-carboxylic acid trihydrochloride], less than 100 nM. Under `O=C(O)c1ccc2c(C3CCCCC3)c3n(c2c1)CCNc1cc(OCc2cc(N4CCCC4=O)ccc2N2CCOCC2)ccc1-3` [Example 1-100, 13-cyclohexyl-3-[2-(morpholin-4-yl)-5-(2-oxopyrrolidin-1-yl)benzyloxy]-6,7-dihydro-5H-benzo[5,6][1,4]diazepino[7,1-a]indole-10-carboxylic acid dihydrochloride] stands less than 100 nM; under `CCN(CCN1CCCCCC1)c1cccc2c1OCCn1c-2c(C2CCCCC2)c2ccc(C(=O)O)cc21` [Example 2-231, 4-{N-[2-(azepan-1-yl)ethyl]-N-ethylamino}-12-cyclohexyl-6,7-dihydro-5-oxa-7a-azadibenzo[a,e]azulene-9-carboxylic acid dihydrochloride], less than 100 nM; under `CCC1CCCCN1CCCN1CCn2c(c(C3CCCCC3)c3ccc(C(=O)O)cc32)-c2ccc(Cl)cc21` (centres unmarked) [Example 1-353, 3-chloro-13-cyclohexyl-5-[3-(2-ethylpiperidin-1-yl)propyl]-6,7-dihydro-5H-benzo[5,6][1,4]diazepino[7,1-a]indole-10-carboxylic acid dihydrochloride], less than 100 nM.

Compound `COCCN1CCn2c(c(C3CCCCC3)c3ccc(C(=O)O)cc32)-c2ccccc21` [Example 1-164, 13-cyclohexyl-5-(2-methoxyethyl)-6,7-dihydro-5H-benzo[5,6][1,4]diazepino[7,1-a]indole-10-carboxylic acid monohydrochloride] registered an IC50 of less than 100 nM. On to `COC(=O)N1CCC(N(C)CCN2CCn3c(c(C4CCCCC4)c4ccc(C(=O)O)cc43)-c3ccccc32)CC1` [Example 1-281, 13-cyclohexyl-5-{2-[N-(1-methoxycarbonylpiperidin-4-yl)-N-methylamino]ethyl}-6,7-dihydro-5H-benzo[5,6][1,4]diazepino[7,1-a]indole-10-carboxylic acid monohydrochloride], for which the IC50 was less than 100 nM. Compound `O=C(O)c1ccc2c(C3CCCCC3)c3n(c2c1)Cc1ccccc1-3` [Example 5-3, 11-cyclohexyl-6H-isoindolo[2,1-a]indole-3-carboxylic acid] came in with an IC50 of 100 to 1000 nM. With `CC1CCCN(CCN2CCn3c(c(C4CCCCC4)c4ccc(C(=O)O)cc43)-c3ccc(OCc4ccccc4)cc32)C1` (centres unmarked) [Example 1-361, 3-benzyloxy-13-cyclohexyl-5-[2-(3-methylpiperidin-1-yl)ethyl]-6,7-dihydro-5H-benzo[5,6][1,4]diazepino[7,1-a]indole-10-carboxylic acid dihydrochloride] the figure was less than 100 nM. The compound `COC(=O)Cn1c(C(C)(C)NC(=O)c2ccc3c(C4CCCCC4)c4n(c3c2)CCOc2ccccc2-4)nc(C)c1C` [Example 2-264, methyl (2-{1-[(12-cyclohexyl-6,7-dihydro-5-oxa-7a-azadibenzo[a,e]azulene-9-carbonyl)amino]-1-methylethyl}-4,5-dimethylimidazol-1-yl)acetate] displayed an IC50 of less than 100 nM. `CC(C)N1CCCC(CCCN2CCn3c(c(C4CCCCC4)c4ccc(C(=O)O)cc43)-c3ccc(Cl)cc32)C1` (centres unmarked) [Example 1-396, 3-chloro-13-cyclohexyl-5-[3-(1-isopropylpiperidin-3-yl)propyl]-6,7-dihydro-5H-benzo[5,6][1,4]diazepino[7,1-a]indole-10-carboxylic acid dihydrochloride]: the IC50 is less than 100 nM. In the case of `CC(C)CN1CCCC(CCN2CCn3c(c(C4CCCCC4)c4ccc(C(=O)O)cc43)-c3ccc(Cl)cc32)C1` (centres unmarked) [Example 1-263, 3-chloro-13-cyclohexyl-5-[2-(1-isobutylpiperidin-3-yl)ethyl]-6,7-dihydro-5H-benzo[5,6][1,4]diazepino[7,1-a]indole-10-carboxylic acid dihydrochloride], the IC50 is less than 100 nM. With `CCOc1ccc2c(c1)N(CCN1CCC(CCOC)CC1)CCn1c-2c(C2CCCCC2)c2ccc(C(=O)O)cc21` [Example 1-501, 13-cyclohexyl-3-ethoxy-5-{2-[4-(2-methoxyethyl)piperidin-1-yl]ethyl}-6,7-dihydro-5H-benzo[5,6][1,4]diazepino[7,1-a]indole-10-carboxylic acid dihydrochloride] the figure was less than 100 nM; with `CCOC(=O)c1csc(C(C)(C)NC(=O)c2ccc3c(C4CCCCC4)c4n(c3c2)CCOc2ccccc2-4)n1` [Example 2-172, ethyl 2-{1-[(12-cyclohexyl-6,7-dihydro-5-oxa-7a-azadibenzo[a,e]azulene-9-carbonyl)amino]-1-methylethyl}thiazole-4-carboxylate], less than 100 nM; with `O=C(O)c1ccc2c(C3CCCCC3)c3n(c2c1)CCOc1c(CCN2CCCCC2)cccc1-3` [Example 2-464, 12-cyclohexyl-4-[2-(piperidin-1-yl)ethyl]-6,7-dihydro-5-oxa-7a-azadibenzo[a,e]azulene-9-carboxylic acid monohydrochloride], less than 100 nM. On to `O=C(O)c1ccc2c(C3CCCCC3)c3n(c2c1)CC(=O)N(CC(=O)N1CCCCC1)c1ccccc1-3` [Example 1-203, 13-cyclohexyl-6-oxo-5-[2-oxo-2-(piperidin-1-yl)ethyl]-6,7-dihydro-5H-benzo[5,6][1,4]diazepino[7,1-a]indole-10-carboxylic acid], for which the IC50 was less than 100 nM. Under `COC(=O)N(C)CCN(C)CCN1CCn2c(c(C3CCCCC3)c3ccc(C(=O)O)cc32)-c2ccccc21` [Example 1-236, 13-cyclohexyl-5-(2-{N-[2-(N-methoxycarbonyl-N-methylamino)ethyl]-N-methylamino}ethyl)-6,7-dihydro-5H-benzo[5,6][1,4]diazepino[7,1-a]indole-10-carboxylic acid dihydrochloride] stands less than 100 nM; under `O=C(O)c1ccc2c(C3CCCCC3)c3n(c2c1)CCN(CC(=O)N1CCCCC1)c1cc(F)ccc1-3` [Example 1-114, 13-cyclohexyl-3-fluoro-5-[2-oxo-2-(piperidin-1-yl)ethyl]-6,7-dihydro-5H-benzo[5,6][1,4]diazepino[7,1-a]indole-10-carboxylic acid monohydrochloride], less than 100 nM; under `CCC1COCCN1CCN1CCn2c(c(C3CCCCC3)c3ccc(C(=O)O)cc32)-c2ccc(C)cc21` (centres unmarked) [Example 1-292, 13-cyclohexyl-5-[2-(3-ethylmorpholin-4-yl)ethyl]-3-methyl-6,7-dihydro-5H-benzo[5,6][1,4]diazepino[7,1-a]indole-10-carboxylic acid dihydrochloride], less than 100 nM. For `Cc1nc(C(C)(C)NC(=O)c2ccc3c(C4CCCCC4)c4n(c3c2)CCOc2ccccc2-4)n(CCO)c1C` [Example 2-292, N-{1-[1-(2-hydroxyethyl)-4,5-dimethyl-1H-imidazol-2-yl]-1-methylethyl}-12-cyclohexyl-6,7-dihydro-5-oxa-7a-azadibenzo[a,e]azulene-9-carboxamide], the IC50 is 100 to 1000 nM. Under `COC(=O)N1CCCN(CCN2CCn3c(c(C4CCCCC4)c4ccc(C(=O)O)cc43)-c3ccccc32)CC1` [Example 1-233, 13-cyclohexyl-5-[2-(4-methoxycarbonyl-1,4-diazepan-1-yl)ethyl]-6,7-dihydro-5H-benzo[5,6][1,4]diazepino[7,1-a]indole-10-carboxylic acid dihydrochloride] stands less than 100 nM; under `CCCC1CCN(CCN2CCn3c(c(C4CCCCC4)c4ccc(C(=O)O)cc43)-c3ccccc32)CC1` [Example 1-192, 13-cyclohexyl-5-[2-(4-propylpiperidin-1-yl)ethyl]-6,7-dihydro-5H-benzo[5,6][1,4]diazepino[7,1-a]indole-10-carboxylic acid dihydrochloride], less than 100 nM.

The compound `CCN1CCCC(OCCN2CCn3c(c(C4CCCCC4)c4ccc(C(=O)O)cc43)-c3ccc(Cl)cc32)C1` (centres unmarked) [Example 1-400, 3-chloro-13-cyclohexyl-5-[2-(1-ethylpiperidin-3-yloxy)ethyl]-6,7-dihydro-5H-benzo[5,6][1,4]diazepino[7,1-a]indole-10-carboxylic acid dihydrochloride] gave an IC50 of less than 100 nM. With `COc1ccc2c(c1)OCCn1c-2c(C2CCCCC2)c2ccc(C(=O)N[C@@H](Cc3ccc(O)cc3)C(=O)N3CCC(OC)CC3)cc21` [Example 2-297, N—[(S)-1-(4-hydroxybenzyl)-2-(4-methoxypiperidin-1-yl)-2-oxoethyl]-12-cyclohexyl-3-methoxy-6,7-dihydro-5-oxa-7a-azadibenzo[a,e]azulene-9-carboxamide] the figure was less than 100 nM. Under `COCC1CCN(CCN2CCn3c(c(C4CCCCC4)c4ccc(C(=O)O)cc43)-c3ccc(C)cc32)CC1` [Example 1-315, 13-cyclohexyl-5-[2-(4-methoxymethylpiperidin-1-yl)ethyl]-3-methyl-6,7-dihydro-5H-benzo[5,6][1,4]diazepino[7,1-a]indole-10-carboxylic acid dihydrochloride] stands less than 100 nM.
